Source: PMC6591174, “The beneficial androgenic action of steroidal aromatase inactivators in estrogen-dependent breast cancer after failure of nonsteroidal drugs” (Cell Death & Disease, 2019)

Legend:
MCF-7 cells = experiment: Cell proliferation assay (CCK8), MCF-7; type: cell-based, human; settings: for proliferation of MCF-7 cells: 1 nM-10 μM, 6 days, 10% PRF-CT with 1 nM E2; for antiproliferative effect in presence of OH-Flutamide, MCF-7: 100 nM compound with 100 nM OH-Flutamide
Method: (§1) Fig. 2 Proliferative response of cancer cells to indicated compounds. a–c the effect of concentrations of different compounds on the growth of the cells. […] Cell growth was measured as described in the “Materials and methods”. The proliferation of cells is expressed as the ratio of the cells compared with the control wells (untreated cells). d, e Influence of different compounds on the cell cycle of MCF-7 cells. MCF-7 cells were cultured in 10% PRF-CT with E2 (1 nM) for 3 days before plating. Cells were seeded in six-well plates and, the next day, starved in PRF for 24 h. Cells were exposed to different compounds at a concentration of 100 nM for 72 h, and then subjected to cell-cycle analysis as described in “Materials and methods”. f MCF-7 cells on poly-L-lysine-coated glass coverslips were exposed to compounds (100 nM) in 10% PRF-CT with 1 nM E2 for 72 h. Control cells were treated with vehicle. DAPI stains DNA, and the secondary anti-mouse antibody to detect the antibody bound to Ki-67 is labeled with the cyanine dye Cy3. The cells were stained with DAPI (blue). Immunofluorescence staining of Ki-67 of cells was observed using fluorescence microscope. Red: Ki-67; blue: nucleus.Typical image is shown. Scale bars: 10 μm. Data represent a mean ± SEM of three independent experiments, each in triplicate; bars, SEM. *P ≤ 0.05 vs. control
(§2) After 24 h, cells were exposed for 3–6 days to various concentrations of compounds (1 nM– 10 μM) or left untreated. The incubation time and the compounds concentrations were chosen based on previous studies[17],[32]–[34]. The effects of the various drugs on cell proliferation at the indicated concentrations (1 nM– 10 μM) were determined by using a CCK8 kit (Dojindo Laboratories, Kumamoto, Japan) according to the manufacturer’s protocol. The absorbance at 450 nm was measured by using a Versamax microplate reader (Thermo Varioskan Flash, USA). Cell growth is expressed as the ratio of the cells compared with the control wells (untreated cells).

ZR-75-1 cells = experiment: Cell proliferation assay (CCK8), ZR-75-1; type: cell-based, human; settings: for proliferation of ZR-75-1 cells: 1 nM-10 μM, 6 days, 10% PRF-CT with 1 nM E2; for antiproliferative effect in presence of OH-Flutamide, ZR-75-1: 100 nM compound with 100 nM OH-Flutamide
Method: as §1, §2

[1] = test system: DMBA-induced mammary carcinoma; experiment: DMBA-induced mammary carcinoma, topical treatment; type: in vivo, female Sprague-Dawley rats; settings: cream 2.5% topically twice daily; for tumor growth: 4 weeks, ovariectomized rats given E2 1 μg/rat daily; for average tumor number after 28 days of treatment: 1.2 ± 0.15 at the beginning, control 4.3 ± 1.2
Method: Fig. 8 The effects of sterols on the DMBA-induced mammary carcinoma in rats. At an age of 50–54 days, female Sprague-Dawley rats were dosed intragastrically with 20 mg DMBA. when at least one tumor measuring 1 cm in diameter was found, the rats were ovariectomized and given intramuscular 1 μg/rat E2 daily. Animals were selected for experiments when at least one tumor per rat had reached a diameter of 1.5 cm. The skin covering the tumor was shaved and animals were divided into four groups. […] Untreated tumors served as controls. a Representative images of the tumors. b Tumor growth curve. c Average number of tumor nodules before and after treatment.The data represent six sets of independent experiments and are shown as the means ± SD. *P < 0.05, **P ≤ 0.01 vs. control group
At an age of 50–54 days, female Sprague-Dawley rats were dosed intragastrically with 20 mg DMBA (Sigma Chemical Co.) dissolved in peanut oil (1 ml/rat). Starting at 40 days after DMBA treatment, animals were examined weekly by palpation; when at least one tumor measuring 1 cm in diameter was found, the rats were ovariectomized using ether anesthesia and were given E2 (1 μg/rat) by daily intramuscular injection. Animals were selected for experiments when at least one tumor per rat had reached a diameter of 1.5 cm. Tumors were measured with calipers once a week, and their volume was calculated according to the following formula: volume = length × (width)^2 × 0.5. Rats were then divided into four groups of six animals each. […] All creams were applied for 4 weeks. […] Tumor growth in the control and treated groups was expressed as a value relative to the initial tumor volume, measured on the 1st day of treatment and taken as 1. At the beginning and end of the treatment period, the number of tumor nodules was counted.

MCF-7 cells (AR siRNA) = experiment: Proliferation of MCF-7 cells after AR downregulation by siRNA; type: cell-based, human; settings: 100 nM, 72 h
Method: Cells were cultured and treated as described in the legend of Fig. 2. […] Cell growth is expressed as the ratio of the number of cells in the experimental well to that in control wells (untreated cells). The columns represent the mean of three experiments, each with five replicates; bars, SEM. *P ≤ 0.05, **P ≤ 0.01 vs. control
AR siRNA and its control siRNA used in this study were described by Wu et al.. The sequence of the AR siRNA used was 5′-[…]-3′ and a nonspecific siRNA duplex was used as a negative control. Growing cells were switched to PRF for 24 h and then switched to 10% PRF–CT medium containing 1 nM E2 for 48 h. MCF-7 cells were trypsinized and transfected in suspension with 2.5 μg siRNA (siAR or scrambled siRNA) or pcDNA3.1-AR in six-well plates, using Lipofectamine 3000 (Invitrogen) in OPTI-MEM medium (Gibco), following the manufacturer’s instructions.

Compound	proliferation of MCF-7 cells (MCF-7 cells)	antiproliferative effect in presence of OH-Flutamide, MCF-7 (MCF-7 cells)	proliferation of ZR-75-1 cells (ZR-75-1 cells)	antiproliferative effect in presence of OH-Flutamide, ZR-75-1 (ZR-75-1 cells)	tumor growth [1]	appearance of new tumors at end of treatment ([1]; 28 days, vs control)	average tumor number after 28 days of treatment [1]	inhibition of proliferation after AR downregulation (MCF-7 cells (AR siRNA))
C[C@]12CC[C@H]3[C@@H](CCC4=C(O)C(=O)CC[C@@]43C)[C@@H]1CC[C@@H]2O [4-OHT, 4-hydroxytestosterone]	strongly antiproliferative	behave like DHT	inhibits the proliferation of ZR-75-1 cells only at micromolar concentrations	behave like DHT	shrinkage of the tumor	almost did not develop new tumors	1.6 ± 0.4 tumors per rat	identical results
C=C1C[C@H]2[C@@H]3CC[C@H](O)[C@@]3(C)CC[C@@H]2[C@@]2(C)C=CC(=O)C=C12 [17-HEXE, 17-hydroexemestane]		behave like DHT		behave like DHT	growth arrest		2.85 ± 0.68 tumors per rat	identical results
C[C@]12CCC(=O)C[C@@H]1CC[C@@H]1[C@@H]2CC[C@]2(C)[C@@H](O)CC[C@@H]12 [DHT, dihydrotestosterone]	inhibits the proliferation of MCF-7 and ZR-75-1 cells at all tested concentrations	almost completely abolished	inhibits the proliferation of MCF-7 and ZR-75-1 cells at all tested concentrations	almost completely abolished	growth arrest		2.25 ± 0.8 tumors per rat	AR downregulation diminishes the ability
